According to US20140200210A1, “PHARMACEUTICAL COMPOSITION FOR TREATING PREMATURE EJACULATION AND METHOD FOR TREATING PREMATURE EJACULATION” (CTC BIO, INC., priority 2011, published 2014):
Counter-ions that a name gives are not always drawn.

Tested on: male patients suffering from premature ejaculation
Experiment: Phase 2b clinical study, effect evaluation: intravaginal ejaculation latency time (IELT)
Type: in vivo, human
Excerpt: Male patients suffering from premature ejaculation were subject to the following parallel clinical study (Phase 2b) (randomized, double-blind, placebo-controlled and fixed dose study) for evaluating tolerance and determining a proper therapeutic capacity.
• Subjects who passed screening entered a 4-week run-in period, and were randomized in 1:1:1 ratio of 2 groups with clomipramine and 1 group with placebo and subject to a double blind experiment. […] Each subject visited the hospital after taking the test drugs for 4 weeks by on-demand therapy.
Group 0 was administered with a tablet of 15 mg placebo and a tablet of 30 mg placebo, Group 1 was administered with a tablet of 15 mg clomipramine HCl and a tablet of 30 mg placebo, and Group 2 was administered with a tablet of 30 mg clomipramine HCl and a tablet of 15 mg placebo for 4 weeks on-demand at about 2 hours to 6 hours prior to sexual activity. The tablets were orally taken with a glass of water.
Primary effectiveness evaluation variables in this clinical study include an IELT fold change at visit 3 (measuring between 0 and 4 weeks) relative to baseline values (i.e., IELT fold change=Value of IELT measured at visit 3 (0 to 4 weeks)/Value of IELT measured at baseline) in each of Group 0 (with treatment of placebo), Group 1 (with treatment of 15 mg clomipramine HCl) and Group 2 (with treatment of 30 mg clomipramine HCl). […]
(1) After administering placebo and 15 mg of clomipramine, and placebo and 30 mg of clomipramine for the period of 4 weeks, a change (%) of IELT values between 0 to 4 weeks after administration, relative to before administration, was calculated by the equation [Change (%) of IELT Values=(Value of IELT measured at 0 to 4 weeks−Value of IELT measured at baseline)×100/Value of IELT measured at baseline].
(2) After administering placebo and 15 mg of clomipramine, and placebo and 30 mg of clomipramine for the period of 4 weeks, a mean change of IELT values between 0 to 4 weeks after administration was calculated. […]

Q: How did the minimum effective dose (case of ITT1) turn out when CN(C)CCCN1c2ccccc2CCc2ccc(Cl)cc21 [clomipramine, clomipramine hydrochloride] was run?
A: The minimum effective dose was 30 mg.

Q: And the minimum effective dose (cases of ITT2 and ITT3)?
A: The minimum effective dose was 15 mg.

Q: What about the minimum effective dose (considering overall situations) of the same molecule?
A: The minimum effective dose was 15 mg.
